The record followed here is patent US6846933B1, “Antimycobacterial compounds and method for making the same” (priority 2000, dated 2005).

In test [1] the test system is M. tuberculosis strain resistant to isoniazid (ATCC 35822). In words: microbe, parasite or virus in culture. The format is cell-based. To be noted: Mycobacterium tuberculosis.
Test [2] deals with M. tuberculosis strain resistant to rifampin (ATCC 35838). The test can be described thus: microbe, parasite or virus in culture. The format is cell-based. To be noted: Mycobacterium tuberculosis.
[3] abbreviates: ATCC35822, read-out: MIC INH-R (ug/ml).
[4] abbreviates: ATCC35838, read-out: MIC RMP-R (ug/ml).

≈ marks a conversion by molar mass, not a printed value. Like-named read-outs stand apart in the source and are kept apart here.

Take `O=C(NN=C1CCCC1)c1ccncc1` [Sample ID 111298]: the MIC in test [1] (setting [3]) was more than 0.75 µg/mL; in test [2] (setting [4]), 0.05 µg/mL (≈ 0.246 µM).
As for `CO[C@H]1/C=C/O[C@@]2(C)Oc3c(C)c(O)c4c(O)c(c(/C=N/N5CCN(C)CC5)c(O)c4c3C2=O)NC(=O)/C(C)=C\C=C\[C@H](C)[C@H](O)[C@@H](C)[C@@H](O)[C@@H](C)[C@H](OC(C)=O)[C@@H]1C` [RMP, rifampin, reference compound], the MIC in test [1] (ATCC35822, read-out: MIC of RMP vs INH-R (Comment, Table 9)) is 0.5 µg/mL; in test [2] (ATCC35838, read-out: MIC of RMP vs RMP-R (Comment, Table 9)) it was more than 8 µg/mL.
Turning to `COc1ccc(/C=N/NC(=O)c2ccncc2)cc1` [Sample ID 102866], the MIC was 3.25 µg/mL (≈ 12.7 µM) in test [1] (setting [3]) and less than 0.05 µg/mL in test [2] (setting [4]).
As for `CC(C)=CCCC(C)C/C=N/NC(=O)c1ccncc1` (stereo not shown) [Sample ID 102044], the MIC in test [1] (setting [3]) was 3.13 µg/mL (≈ 11.4 µM); in test [2] (setting [4]), less than 0.1 µg/mL.
As to `CC1C/C(=N/NC(=O)c2ccncc2)CC(C)(C)C1` (stereo not shown) [Sample ID 114353], the MIC in test [1] (setting [3]) is less than 6.25 µg/mL; in test [2] (setting [4]) it was less than 0.1 µg/mL.
The like results for `CCOC(=O)/C(CCc1ccccc1)=N\NC(=O)c1ccncc1` [Sample ID 132358] were, in that order, more than 3.2 µg/mL and 0.1 µg/mL (≈ 0.307 µM).
With `O=C(N/N=C/c1cc(Cl)ccc1Cl)c1ccncc1` [Sample ID 117150], the MIC in test [1] (setting [3]) was more than 3.25 µg/mL; in test [2] (setting [4]), less than 0.05 µg/mL.
For `O=C(N/N=C/C=C(c1ccccc1)c1ccccc1)c1ccncc1` [Sample ID 132532], the MIC in test [1] (setting [3]) is more than 3.2 µg/mL; in test [2] (setting [4]) it was 0.1 µg/mL (≈ 0.305 µM).
